In patent US8791108B2, “Inhibitors of human immunodeficiency virus replication” (priority 2011, dated 2014):
Read-outs that look alike come from different tables or passages of the source.

System: recombinant NL-Rluc virus
Assay: Inhibition of HIV replication (NL-RLuc luciferase reporter virus, MT-2 cells)
Assay type: cell-based
Conditions: Human immunodeficiency virus 1, MT2, 120 h

Question: Which EC50 (read-out: Activity) does the source give for Cc1cc(CNC(=O)c2cc3nc(C)c([C@H](OC(C)(C)C)C(=O)O)c(/C=C/CC(C)C)n3n2)ccc1F [Example 149, (S,E)-2-(tert-Butoxy)-2-(2-((4-fluoro-3-methylbenzyl)carbamoyl)-5-methyl-7-(4-methylpent-1-en-1-yl)pyrazolo[1,5-a]pyrimidin-6-yl)acetic acid] here?
Answer: Its EC50 is over 1 µM.

Question: With Cc1nc2cc(C(=O)NCCC(C)(C)C)nn2c(/C=C/CC(C)C)c1[C@H](OC(C)(C)C)C(=O)O [Example 150, (S,E)-2-(tert-Butoxy)-2-(2-((3,3-dimethylbutyl)carbamoyl)-5-methyl-7-(4-methylpent-1-en-1-yl)pyrazolo[1,5-a]pyrimidin-6-yl)acetic acid] as the compound, how does the EC50 (read-out: Activity) read?
Answer: The EC50 was over 1 µM.

Question: And the EC50 (read-out: EC50 μM)?
Answer: The EC50 was 1.2 µM.

Question: Which EC50 (read-out: Activity) does the source give for Cc1cc(CNC(=O)c2cc3nc(C)c([C@H](OC(C)(C)C)C(=O)O)c(N4CCC(C)(C)CC4)n3n2)ccc1F [Example 151, (S)-2-(tert-Butoxy)-2-(7-(4,4-dimethylpiperidin-1-yl)-2-((4-fluoro-3-methylbenzyl)carbamoyl)-5-methylpyrazolo[1,5-a]pyrimidin-6-yl)acetic acid] here?
Answer: Its EC50 is under 0.1 µM.

Question: What does the source list for Cc1nc2cc(C(=O)NCCC(C)(C)C)nn2c(N2CCC(C)(C)CC2)c1[C@H](OC(C)(C)C)C(=O)O [Example 152, (S)-2-(tert-Butoxy)-2-(2-((3,3-dimethylbutyl)carbamoyl)-7-(4,4-dimethylpiperidin-1-yl)-5-methylpyrazolo[1,5-a]pyrimidin-6-yl)acetic acid]?
Answer: EC50 (read-out: Activity): < 0.1 µM; EC50 (read-out: EC50 μM): 0.03 µM
